Measured values: patent publication US20060004002A1 (priority 2004, published 2006)

Target: T1, Recombinant human Src (Homo sapiens, UniProt P12931)
T1 construct: made in house; host or cells: baculovirus-insect cell system
Experiment: Src tyrosine kinase activity assay with poly E4Y and 32P-ATP
Type: biochemical
Settings: poly E4Y, 32P-ATP; NI = no inhibition; read-out: IC50 Value Src
Protocol: Recombinant human Src was expressed using the baculovirus-insect cell system and purified as published (Budde et al., 1993 and 2000). Recombinant Csk and the FGF receptor (FGFr) were expressed as […] fusion proteins using the pGEX expression vector and E. coli, and purified as described (Sun & Budde, 1995).
The tyrosine kinase activity of Src, Csk and FGFr was determined using poly E4Y and ^32P-ATP. Briefly, enzymes were assayed in a reaction mixture […] consisting of 0.15 M EPPS-NaOH (pH 8.0) with 6 mM MgCl2, 0.2 mM γ^32P-ATP (0.2-0.4 mCi/μmol), 10% glycerol, 0.1% Triton X-100, and poly E4Y. Poly E4Y is a synthetic peptide whose phosphorylation is measured in this assay by the addition of the radioactively labeled phosphate from the ATP (Budde et al., 1995). […] When ATP was varied (0, 50, 100 and 250 μM), poly E4Y was kept constant at 150 μg/ml.

T1 sequence (P12931 whole entry): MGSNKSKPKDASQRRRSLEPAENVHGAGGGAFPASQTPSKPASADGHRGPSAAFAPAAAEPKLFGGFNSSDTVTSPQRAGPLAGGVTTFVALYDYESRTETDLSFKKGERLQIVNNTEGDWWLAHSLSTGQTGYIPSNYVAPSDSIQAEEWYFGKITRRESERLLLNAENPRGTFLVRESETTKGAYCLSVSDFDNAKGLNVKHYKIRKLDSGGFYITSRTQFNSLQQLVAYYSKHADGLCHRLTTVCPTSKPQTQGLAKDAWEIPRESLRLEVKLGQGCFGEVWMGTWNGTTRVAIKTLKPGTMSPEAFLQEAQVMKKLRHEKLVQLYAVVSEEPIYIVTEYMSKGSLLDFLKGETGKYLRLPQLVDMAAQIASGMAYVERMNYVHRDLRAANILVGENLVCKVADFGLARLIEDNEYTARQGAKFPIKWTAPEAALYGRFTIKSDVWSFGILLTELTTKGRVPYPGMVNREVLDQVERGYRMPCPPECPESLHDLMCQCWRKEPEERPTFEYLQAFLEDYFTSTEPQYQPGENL

Row | IC50 [nM] | Structure (SMILES)
1 | 74 | COc1ccc(C=NNc2ncnc3c(C)c(-c4ccccc4C#N)sc23)cc1O [Compound 31, 3-Hydroxy-4-methoxybenzaldehyde (6-(2-cyanophenyl)-7-methylthieno[3,2-d]pyrimidin-4-yl)hydrazone]
2 | 3 | CCOc1ccccc1-c1sc2c(NN=Cc3ccoc3)ncnc2c1C#N [compound 127]
3 | 1.2 | CCOc1ccccc1-c1sc2c(NN=Cc3cccnc3)ncnc2c1C#N [compound 67]
4 | 18 | CCOc1ccccc1-c1sc2c(NN=Cc3nccn3C)ncnc2c1C#N [compound 138]
5 | 24 | Cc1c(-c2ccc(CN)cc2)sc2c(NN=Cc3cccnc3)ncnc12 [Compound 3, 3-Pyridinecarboxaldehyde (6-(4-aminomethyl)phenyl-7-methylthieno[3,2-d]pyrimidin-4-yl)hydrazone]
6 | 16 | Cc1c(-c2cccc(CN)c2)sc2c(NN=Cc3cccnc3)ncnc12 [Compound 6, 3-Pyridinecarboxaldehyde (6-(3-aminomethyl)phenyl-7-methylthieno[3,2-d]pyrimidin-4-yl)hydrazone]
7 | 8.5 | CCOc1cc(F)ccc1-c1sc2c(NN=Cc3cccs3)ncnc2c1C#N [compound 108]
8 | 41 | Cc1c(-c2cccc(C(=N)N)c2)sc2c(NN=Cc3cccnc3)ncnc12 [Compound 32]
9 | 1400 | CCOc1ccccc1-c1sc2c(NN=Cc3ccccc3Cl)ncnc2c1C [Compound 77, 2-Chlorobenzaldehyde (6-(2-ethoxyphenyl)-7-methylthieno[3,2-d]pyrimidin-4-yl)hydrazone]
10 | 58 | COc1ccc(C=NNc2ncnc3c(C)c(-c4cccc(C#N)c4)sc23)cc1O [Compound 27, 3-Hydroxy-4-methoxybenzaldehyde (6-(3-cyanophenyl)-7-methylthieno[3,2-d]pyrimidin-4-yl)hydrazone]
11 | 41 | Cc1c(-c2cccc(C(N)=O)c2)sc2c(NN=Cc3ccc(C(=O)O)cc3)ncnc12 [Compound 22, 4-Carboxybenzaldehyde (6-(3-aminocarbonylphenyl)-7-methylthieno[3,2-d]pyrimidin-4-yl)hydrazone]
12 | 22 | CCOc1ccccc1-c1sc2c(NN=Cc3ccc(C(=O)OC)cc3)ncnc2c1C#N [compound 118]
13 | 64 | CCNc1ccc(-c2sc3c(NN=Cc4ccc(OC)c(O)c4)ncnc3c2C)cc1 [Compound 48, 3-Hydroxy-4-methoxybenzaldehyde (6-(4-N-ethylaminophenyl)-7-methylthieno[3,2-d]pyrimidin-4-yl)hydrazone]
14 | 0.31 | CCOc1ccccc1-c1sc2c(NN=Cc3cc(Br)c(O)c(OC)c3)ncnc2c1C#N [compound 87]
15 | 28 | Cc1c(-c2ccc(CN)cc2)sc2c(NN=Cc3cccs3)ncnc12 [Compound 4, 2-Thiophenecarboxaldehyde (6-(4-aminomethyl)phenyl-7-methylthieno[3,2-d]pyrimidin-4-yl)hydrazone]
16 | 2.8 | CCOc1ccccc1-c1sc2c(NN=Cc3ccc(C)s3)ncnc2c1O [Compound 128, 5-Methyl-2-thiophenecarboxaldehyde (6-(2-ethoxyphenyl)-7-hydroxythieno[3,2-d]pyrimidin-4-yl)hydrazone]
17 | 79 | CCOCc1c(-c2ccccc2OCC)sc2c(NN=Cc3ccc(OC)c(O)c3)ncnc12 [Compound 44]
18 | 45 | CCOc1ccccc1-c1sc2c(NN=Cc3ccc(F)c(Cl)c3)ncnc2c1O [Compound 125, 3-Chloro-4-fluorobenzaldehyde (6-(2-ethoxyphenyl)-7-hydroxythieno[3,2-d]pyrimidin-4-yl)hydrazone]
19 | 26 | COc1ccc(C=NNc2ncnc3c(C)c(-c4cccc(CN5CCOCC5)c4)sc23)cc1O [Compound 17, 3-Hydroxy-4-methoxybenzaldehyde (7-methyl-6-(3-(morpholin-4-yl)methyl)phenylthieno[3,2-d]pyrimidin-4-yl)hydrazone]
20 | 41 | Cc1c(-c2ccc(O)cc2)sc2c(NN=Cc3ccc(C(=O)O)cc3)ncnc12 [Compound 76, 4-Carboxybenzaldehyde (6-(4-hydroxyphenyl)-7-methylthieno[3,2-d]pyrimidin-4-yl]hydrazone]
21 | 0.29 | CCOc1ccccc1-c1sc2c(NN=Cc3ccc(C(=O)O)cc3)ncnc2c1O [Compound 74, 4-Carboxybenzaldehyde (6-(2-ethoxyphenyl)-7-hydroxythieno[3,2-d]pyrimidin-4-yl)hydrazone]
22 | 5.9 | CCOc1ccccc1-c1sc2c(NN=Cc3ccc(C(=O)OC)cc3)ncnc2c1O [Compound 120, Methyl 4-formyl benzoate (6-(2-ethoxyphenyl)-7-hydroxythieno[3,2-d]pyrimidin-4-yl)hydrazone]

Row | IC50 [nM] | Structure (SMILES)
23 | 22 | CCOc1ccccc1-c1sc2c(NN=Cc3ccc(OC)c(O)c3)ncnc2c1OC [Compound 40, 3-Hydroxy-4-methoxybenzaldehyde (6-(2-ethoxyphenyl)-7-methoxythieno[3,2-d]pyrimidin-4-yl)hydrazone]
24 | 57 | COc1ccc(C=NNc2ncnc3c(C)c(-c4ccc(F)cc4)sc23)cc1O [Compound 36, 3-Hydroxy-4-methoxybenzaldehyde (6-(4-fluorophenyl)-7-methylthieno[3,2-d]pyrimidin-4-yl)hydrazone]
25 | 14 | CCOc1ccccc1-c1sc2c(NN=Cc3ccc(OC)c(O)c3)ncnc2c1CC [compound 35]
26 | 3 | CCOc1ccccc1-c1sc2c(NN=Cc3cccnc3)ncnc2c1O [Compound 73, 3-Pyridinecarboxaldehyde (6-(2-ethoxyphenyl)-7-hydroxythieno[3,2-d]pyrimidin-4-yl)hydrazone]
27 | 6 | CCOc1cc(F)ccc1-c1sc2c(NN=Cc3ccc(OC)c(O)c3)ncnc2c1O [Compound 61, 3-Hydroxy-4-methoxybenzaldehyde (6-(2-ethoxy-4-fluorophenyl)-7-hydroxythieno[3,2-d]pyrimidin-4-yl)hydrazone]
28 | 14 | COc1ccc(C=NNc2ncnc3c(C)c(-c4cccc(C(N)=O)c4)sc23)cc1O [Compound 19, 3-Hydroxy-4-methoxybenzaldehyde (6-(3-aminocarbonylphenyl)-7-methylthieno[3,2-d]pyrimidin-4-yl)hydrazone]
29 | 1400 | Cc1c(-c2cccc(C#N)c2)sc2c(NN=Cc3cccs3)ncnc12 [Compound 28, 2-Thiophenecarboxaldehyde (6-(3-cyanophenyl)-7-methylthieno[3,2-d]pyrimidin-4-yl)hydrazone]
30 | 12 | CCOc1ccccc1-c1sc2c(NN=Cc3c[nH]c(=O)[nH]c3=O)ncnc2c1C#N [compound 111]
31 | 27 | Cc1c(-c2cccc(C#N)c2)sc2c(NN=Cc3cccnc3)ncnc12 [Compound 29, 3-Pyridinecarboxaldehyde (6-(3-cyanophenyl)-7-methylthieno[3,2-d]pyrimidin-4-yl)hydrazone]
32 | 3.4 | CCOc1ccccc1-c1sc2c(NN=Cc3ccoc3)ncnc2c1O [Compound 129, 3-Furancarboxaldehyde(6-(2-ethoxyphenyl)-7-hydroxythieno[3,2-d]pyrimidin-4-yl)hydrazone]
33 | 55 | CCOc1cc(F)ccc1-c1sc2c(NN=Cc3cccs3)ncnc2c1CO [Compound 107, 2-Thiophenecarboxaldehyde (6-(2-ethoxy-4-fluorophenyl)-7-hydroxymethylthieno[3,2-d]pyrimidin-4-yl)hydrazone]
34 | 4.7 | CCOc1ccccc1-c1sc2c(NN=Cc3ccco3)ncnc2c1C#N [compound 119]
35 | 340 | CCOc1ccccc1-c1sc2c(NN=Cc3ccc(OC)c(O)c3)ncnc2c1OCCN1CCOCC1 [Compound 41, 3-Hydroxy-4-methoxybenzaldehyde (6-(2-ethoxyphenyl)-7-(2-(morpholin-4-yl)-ethoxy)thieno[3,2-d]pyrimidin-4-yl)hydrazone]
36 | 120 | CCOc1ccccc1-c1sc2c(NN=Cc3ccc(OC)c(O)c3)ncnc2c1COCC(O)CO (racemic) [Compound 56, 3-Hydroxy-4-methoxybenzaldehyde(7-((±)-4,5-dihydroxy-2-oxopentyl) (6-(2-ethoxyphenyl)thieno[3,2-d]pyrimidin-4-yl)hydrazone]
37 | 2.6 | CCOc1ccccc1-c1sc2c(NN=Cc3ccc(C)o3)ncnc2c1C#N [compound 134]
38 | 120 | COc1ccc(C=NNc2ncnc3c(C)c(-c4ccccc4CN)sc23)cc1O [Compound 7, 3-Hydroxy-4-methoxybenzaldehyde (6-(2-aminomethyl)phenyl-7-methylthieno[3,2-d]pyrimidin-4-yl)hydrazone]
39 | 4 | CCOc1ccccc1-c1sc2c(NN=Cc3ccc(F)cc3)ncnc2c1C#N [compound 135]
40 | 20 | CCOc1ccccc1-c1sc2c(NN=Cc3cccnc3)ncnc2c1CO [Compound 70, 3-Pyridinecarboxaldehyde (6-(2-ethoxyphenyl)-7-hydroxymethylthieno[3,2-d]pyrimidin-4-yl)hydrazone]
41 | 6.5 | C=CCOc1ccccc1-c1sc2c(NN=Cc3ccc(OC)c(O)c3)ncnc2c1C [Compound 80, 3-Hydroxy-4-methoxybenzaldehyde (6-(2-allyloxyphenyl)-7-methylthieno[3,2-d]pyrimidin-4-yl)hydrazone]
42 | 1.8 | CCOc1ccccc1-c1sc2c(NN=Cc3ccc(NC(C)=O)cc3)ncnc2c1C#N [compound 130]
43 | 13 | Cc1c(-c2ccc(C(N)=O)cc2)sc2c(NN=Cc3cccnc3)ncnc12 [Compound 24, 3-Pyridinecarboxaldehyde (6-(4-aminocarbonylphenyl)-7-methylthieno[3,2-d]pyrimidin-4-yl)hydrazone]
